Results from PMC4104029, “Mechanism of Action of Compound-13: An α1-Selective Small Molecule Activator of AMPK” (Chemistry & Biology, 2014).

Assays:
AMPK α1β1γ1 = target: T1, AMPK α1β1γ1 (Homo sapiens, UniProt P54619+Q13131); assay: AMPK phosphotransferase assay, allosteric activation, cell-free; format: biochemical; settings: 1 μM C2, ADP 0–200 μM
T1 construct: purchased Sigma and Signalchem; host or cells: Spodoptera frugiperda (Sf9)
Method: Figure 1 The AMP Analog C2 Is a Potent AMPK Activator in Cell-Free Assays with Selectivity for α1 Complexes (A) The structure of the endogenous activator of AMPK, AMP; the AMP mimetic, C2; and the classical AMP mimetic, ZMP, and other AMPK activators are shown. […] (B) Recombinant AMPK complexes (α1β1γ1, α2β1γ1, α1β1γ2, and α1β2γ1) expressed in Spodoptera frugiperda were assayed for allosteric activation by AMP or C2. Results are expressed as the increase in activity relative to controls without ligand and represent the mean ± SD for three independent experiments. (C) Enzymes allosterically regulated by AMP (PFK1 and FBP1) or using AMP as a substrate (AMPD1, AK, and 5′-NT) were assayed in the presence of C2 (≤ 100 μM). Enzymes allosterically regulated by AMP were screened for both agonism and antagonism, the latter in the presence of AMP at ≈ EC50. All enzymes were unaffected by [C2] ≤ 100 μM. Representative data are shown for the effects of AMP and C2 on PFK1 and FBP1 activity. Results are representative of three independent experiments conducted on one enzyme preparation. TEXT PRINTED IN THE PICTURE: (B) C2: α1β1γ1: EC50: 0.011 ± 0.001 μM; α2β1γ1: EC50: 0.015 ± 0.003 μM; α1β1γ2: EC50: 0.024 ± 0.004 μM; α1β2γ1: EC50: 0.015 ± 0.002 μM | (B) AMP: α1β1γ1: EC50: 3.7 ± 0.6 μM; α2β1γ1: EC50: 3.2 ± 0.2 μM; α1β1γ2: EC50: 2.5 ± 0.3 μM; α1β2γ1: EC50: 3.2 ± 0.4 μM | (C) C2: PFK1: EC50: ND; FBP1: IC50: ND | (C) AMP: PFK1: EC50: 33 ± 3 μM; FBP1: IC50: 5 ± 0.2 μM […]
We initially compared the ability of C2 and AMP to activate various recombinant human AMPK complexes, expressed in insect cells, in cell-free assays (Figure 1B). As reported previously using rat liver complexes separated by immunoprecipitation ([Salt et al., 1998]), the allosteric activation of α1 complexes by AMP was less than that of α2 complexes. […] Similar results were obtained with other permutations of β and γ subunits in complex with α2 (data not shown). We also tested the effects of C2 and AMP on recombinant human α1β1γ1 and α2β1γ1 complexes expressed in E. coli and obtained similar results (data not shown).
AMPK phosphotransferase activity was assayed in reactions (50 μl) containing 50 mM HEPES, pH 7.4, 10 mM MgCl2, 0.1 mM EGTA, 1 mM DTT, 0.01% BRIJ-35, 100 μM [γ-^32P]ATP (∼250 CPM⋅pmol^−1) and 200 μM AMARA (AMARAASAAALARRR). Reactions were started by the addition of AMPK (5 mU), incubated for 20 min at 30°C and quenched by spotting onto P81 and immersion in 75 mM H3PO4. Washed filters were dried and [^32P] incorporation determined by Cherenkov counting. AMPK activity in cell extracts was determined by immunoprecipitation with AMPKα1 or AMPKα2 antibodies from 50 μg material, as previously described ([Hunter et al., 2011]). […]

[1] = tested on: LKB1−/− mouse embryonic fibroblasts; assay: AMPK and ACC phosphorylation in LKB1-null fibroblasts; format: cell-based; settings: 1 hr; AICAR 2 mM
Method: AICAR (0.5 mM) was included as a positive control. Cell lysates were analyzed using western blotting with the indicated antibodies. (B) AMPKα1 or AMPKα2 complexes were immunoprecipitated from hepatocyte extracts prepared as described in (A) and assayed for kinase activity using 0.2 mM AMARA and 0.1 mM ATP. Results are expressed as the mean Pi incorporated in picomoles per minute-milligram ± SD. (C) Hepatocytes were stimulated with 30 μM C13 for the indicated times prior to harvesting, with AICAR (0.5 mM, 1 hr) as positive control. Lysates were analyzed using western blotting with the indicated antibodies. (D) Mouse hepatocytes were treated with the indicated compounds for 1 hr, and adenine nucleotide ratios were determined using capillary electrophoresis of perchloric acid extracts. […] Lysates were analyzed using western blotting with the indicated antibodies. (F) Wild-type (LKB1^+/+) or LKB1-null (LKB1^−/−) mouse embryonic fibroblasts were incubated with the indicated concentrations of C13 for 1 hr. AICAR (2 mM) was included as a positive control. Lysates were analyzed using western blotting with the indicated antibodies.

β1-KO hepatocytes [2] = assay: Lipogenesis, [3H]acetate incorporation into total lipids; format: cell-based, mouse; settings: 100 μM, 4 hr
Method: (§1) Figure 7 C13 Activates Both β1 and β2 Complexes in Mouse Hepatocytes (A) Hepatocytes from WT, AMPKβ1^−/−, and AMPKβ2^−/− mice were incubated with the indicated concentrations of C13 for 1 hr. A769662 (100 μM) was included as a positive control. Lysates were analyzed using western blotting with the indicated antibodies. (B) Mouse hepatocytes from the indicated genotypes were treated with the indicated concentrations of C13 and labeled with [^3H]acetate for 4 hr. Lipogenesis was estimated from the incorporation of acetate into total lipids. Results are expressed as the mean acetate incorporated in micromoles per gram-hour ± SD.
Lipid synthesis was determined by labeling adherent cultures of primary hepatocytes with [1-^14C]acetate. After overnight culture, hepatocytes (5 × 10^5) were washed with warm PBS and allowed to rest for 3 hr in fresh M199. Cells were treated with vehicle (0.1% DMSO) or the indicated compounds and labeled with 1 mCi⋅mmol^−1 [1-^14C]acetate for 3 hr. […] Lipogenesis in hepatocytes from AMPKβ1/β2-KO mice was determined in media containing [^3H]acetate (0.2 mCi⋅mmol^−1). After 4 hr labeling, total lipids were extracted using the method of [Bligh and Dyer (1959)], and incorporated [^3H] was determined by scintillation counting. The results are expressed as micromoles acetate incorporated per gram-hour.

WT and β2-KO hepatocytes = assay: AMPK signaling, western blotting; format: cell-based, mouse; settings: 1 hr; A769662 100 μM
Method: as §1

β1-KO hepatocytes [3] = assay: AMPK signaling, western blotting; format: cell-based, mouse; settings: 1 hr; A769662 100 μM
Method: as §1

mouse hepatocytes = assay: Adenine nucleotide ratios by capillary electrophoresis; format: cell-based; settings: 1 hr; C13 up to 100 μM
Method: (§2) Figure 4 The C2 Prodrug, C13, Potently Activates AMPK in Mouse Primary Hepatocytes (A) Isolated mouse hepatocytes were incubated with vehicle or the indicated concentrations of C13 for 1 hr. AICAR (0.5 mM) was included as a positive control. Cell lysates were analyzed using western blotting with the indicated antibodies. (B) AMPKα1 or AMPKα2 complexes were immunoprecipitated from hepatocyte extracts prepared as described in (A) and assayed for kinase activity using 0.2 mM AMARA and 0.1 mM ATP. Results are expressed as the mean Pi incorporated in picomoles per minute-milligram ± SD. (C) Hepatocytes were stimulated with 30 μM C13 for the indicated times prior to harvesting, with AICAR (0.5 mM, 1 hr) as positive control. Lysates were analyzed using western blotting with the indicated antibodies. (D) Mouse hepatocytes were treated with the indicated compounds for 1 hr, and adenine nucleotide ratios were determined using capillary electrophoresis of perchloric acid extracts. (E) Mouse hepatocytes were preincubated with 30 μM STO-609 for 30 min prior to stimulation with 30 μM C13 for 1 hr or with 1 μM ionomycin for 30 min. Lysates were analyzed using western blotting with the indicated antibodies. (F) Wild-type (LKB1^+/+) or LKB1-null (LKB1^−/−) mouse embryonic fibroblasts were incubated with the indicated concentrations of C13 for 1 hr. AICAR (2 mM) was included as a positive control. Lysates were analyzed using western blotting with the indicated antibodies. Results are representative of three independent experiments. […]
Isolation of primary hepatocytes. Hepatocytes were isolated from fasted mice by collagenase digestion (Berry and Friend, 1969). Cells were seeded in M199 containing 100 U/ml penicillin G, 100 µg/ml streptomycin, 0.1 % (w/v) BSA, 10 % (v/v) FBS, 10 nM insulin, 200 nM triiodothyronine and 100 nM dexamethasone. […]
Nucleotide measurements. […] Nucleotides were separated and quantified by capillary electrophoresis using a Beckman P/ACE instrument as previously described (Hawley, et al., 2010).

[4] = tested on: AMPK signaling in mouse primary hepatocytes; assay: AMPK signaling in primary hepatocytes, western blotting; format: cell-based; settings: 30 μM STO-609 for 30 min, 1 μM ionomycin
Method: as §2
Isolation of primary hepatocytes. Hepatocytes were isolated from fasted mice by collagenase digestion (Berry and Friend, 1969). Cells were seeded in M199 containing 100 U/ml penicillin G, 100 µg/ml streptomycin, 0.1 % (w/v) BSA, 10 % (v/v) FBS, 10 nM insulin, 200 nM triiodothyronine and 100 nM dexamethasone. Post attachment (3-4 h), cells were cultured overnight in M199 supplemented with antibiotics and 100 nM dexamethasone and used for experiments the following morning.
Western blotting. Cells were stimulated as indicated, rinsed with ice-cold PBS and lysed with 50 mM tris pH 7.5, 1 mM EDTA, 1 mM EGTA, 0.27 M sucrose, 1 % (w/v) Triton X-100, 20 mM glycerol-2-phosphate, 50 mM NaF, 5 mM Na4P2O7, 1 mM Na3VO4, 1 mM DTT, 0.5 mM PMSF, 1 mM benzamidine and 1 µM microcystin-LR. Lysates were clarified at 3000 g for 5 min at 4 °C and normalised using Bradford reagent and BSA as standard. Lysates (20 µg) were denatured in Laemlli buffer, separated on 7.5 % tris-glycine gels and transferred to PVDF in Towbin buffer. Membranes were blocked in 5 % (w/v) milk for 1 h at RT and incubated overnight in the indicated primary antibodies at 4 °C. Membranes were developed using HRP-conjugated antibodies and ECL reagent.
Nucleotide measurements. Cultured hepatocytes were incubated with the indicated compounds and washed with ice-cold 0.9 % (w/v) saline before extraction in 5 % perchloric acid. Precipitated material was removed by centrifugation (13,000 RPM, 3 min) and supernatant neutralised with 1:1 trioctylamine:Freon-113 (Khym, 1975). Nucleotides were separated and quantified by capillary electrophoresis using a Beckman P/ACE instrument as previously described (Hawley, et al., 2010).

T1 sequence (Q13131 whole entry): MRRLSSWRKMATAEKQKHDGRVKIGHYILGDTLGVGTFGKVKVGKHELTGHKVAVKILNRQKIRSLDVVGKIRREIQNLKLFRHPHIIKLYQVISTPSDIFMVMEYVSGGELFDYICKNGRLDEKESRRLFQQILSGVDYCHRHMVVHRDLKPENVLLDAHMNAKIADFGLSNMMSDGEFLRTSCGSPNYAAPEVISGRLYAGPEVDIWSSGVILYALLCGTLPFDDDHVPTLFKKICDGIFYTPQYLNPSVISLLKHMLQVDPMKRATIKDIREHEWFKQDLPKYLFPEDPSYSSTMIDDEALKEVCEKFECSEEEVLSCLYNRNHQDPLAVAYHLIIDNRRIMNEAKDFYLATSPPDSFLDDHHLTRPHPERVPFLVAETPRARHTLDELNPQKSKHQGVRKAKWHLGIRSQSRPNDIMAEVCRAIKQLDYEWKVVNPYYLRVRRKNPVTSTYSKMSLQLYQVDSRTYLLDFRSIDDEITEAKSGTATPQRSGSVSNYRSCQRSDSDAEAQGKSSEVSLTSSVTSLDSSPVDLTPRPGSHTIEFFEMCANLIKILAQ
T1 sequence (Q9Y478 whole entry partner): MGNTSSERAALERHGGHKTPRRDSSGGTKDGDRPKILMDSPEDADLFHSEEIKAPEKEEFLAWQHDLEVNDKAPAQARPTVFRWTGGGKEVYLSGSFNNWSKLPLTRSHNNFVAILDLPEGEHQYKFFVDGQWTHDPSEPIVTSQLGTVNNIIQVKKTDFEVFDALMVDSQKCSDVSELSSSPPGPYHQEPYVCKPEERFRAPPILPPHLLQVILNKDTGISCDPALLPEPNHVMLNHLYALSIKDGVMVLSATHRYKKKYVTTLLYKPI
T1 sequence (P54619 whole entry): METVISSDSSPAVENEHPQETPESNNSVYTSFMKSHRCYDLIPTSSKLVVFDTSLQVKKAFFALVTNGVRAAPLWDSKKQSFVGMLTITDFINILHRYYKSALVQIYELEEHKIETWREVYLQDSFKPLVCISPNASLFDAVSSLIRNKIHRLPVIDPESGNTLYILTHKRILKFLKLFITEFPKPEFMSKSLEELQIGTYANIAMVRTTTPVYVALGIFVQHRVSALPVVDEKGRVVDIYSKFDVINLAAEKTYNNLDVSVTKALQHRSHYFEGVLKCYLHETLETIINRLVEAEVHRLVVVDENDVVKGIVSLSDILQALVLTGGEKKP

In the case of `Nc1ncnc2c1ncn2[C@@H]1O[C@H](COP(=O)(O)OP(=O)(O)O)[C@@H](O)[C@H]1O` [ADP, reference compound], the “effect on activation by C2” value (AMPK α1β1γ1) was “antagonized”.

For `NC(=O)c1ncn([C@@H]2O[C@H](CO)[C@@H](O)[C@H]2O)c1N` [AICAR, 5-aminoimidazole-4-carboxamide riboside, reference compound], the “compound-induced phosphorylation of AMPK and ACC” value [1] was “abolished”.

For `N#Cc1c(O)c2c(-c3ccc(-c4ccccc4O)cc3)csc2[nH]c1=O` [Compound A769662, reference compound], the suppression of lipogenesis (β1-KO hepatocytes [2]) was “failed to suppress lipogenesis”, the “phosphorylation of Thr172 and ACC, as well as Raptor” value (WT and β2-KO hepatocytes) was “robustly stimulated” and the “stimulation of AMPK (Thr172 phosphorylation)” value (β1-KO hepatocytes [3]) was “failed to stimulate”.

With `OO` [Compound H2O2] the “ADP:ATP and AMP:ATP ratios” value (mouse hepatocytes) was “increased”.

`O=[N+]([O-])c1ccc(O)c([N+](=O)[O-])c1` [DNP, 2,4-dinitrophenol] was tested, and the “ADP:ATP and AMP:ATP ratios” value (mouse hepatocytes) was “increased”.

With `O=C(O)c1ccc2c3c1cccc3c(=O)n1c3ccccc3nc21` [STO-609, reference compound] the “phosphorylation of AMPK and ACC by ionomycin after prior incubation” value [4] was “almost completely abolished”.
